Measured values reported in patent US6812258B2, “Cancer treatment composition and method using natural plant essential oils” (Ecosmart Technologies, Inc., priority 1998, dated 2004).
Like-named read-outs stand apart in the source and are kept apart here.

What was measured:
MCF-7 cells = experiment: Dose-response effect on E2-induced cell growth, viable cell count (trypan blue, haemocytometer); type: cell-based, human; details: for % anti-E2 / Cell count average / Cell count well #1 / Cell count well #2: Day 5
Experimental: MCF-7 cells were cultured in growth medium supplemented with 10% fetal bovine serum (FBS). At 85% confluence, cells were sub-cultured in 6 well petri-dishes and supplemented with 5% FBS serum stripped medium, phenol red free for 24 hours prior to the treatment of different concentrations of the test chemicals. After 5 days of treatment cells were trypsinized, collected using Eppendorf microcentrifuge. The cell pellets were resuspended in 1% trypan blue and three aliquots (10 ul each) of the viable cell suspension were counted using a haemocytometer assay. Each sample was then counted three times and the data shown is the average of three counts. These test chemicals were tested in the presence of 10 nM estrogen (=2.7 ng estrogen/ml). Two wells per test concentration were used. This experiment was repeated two times. Control received solvent only at <0.1% ethanol.

[1] = system: Human Epithelial Breast Cancer Cells (MCF-7); experiment: Antiproliferative effect, 3H-thymidine incorporation in MCF-7 cells with and without estrogen; type: cell-based; details: 24 hours treatment; for activity at 50 µg/mL: Homo sapiens, MCF7, 24 h, read-out: 3H-thymidine incorporation % of control value, Table 1
Experimental: (§1) MCF-7 cells were cultured in growth medium supplemented with 10% fetal bovine serum (FBS). At 85% confluence, cells were sub-cultured in 5% FBS serum stripped medium, phenol red free for 24 hours prior to the treatment of the test chemical. After 24 hours of treatment cell proliferation was measured using ^3H-thymidine incorporation. These test chemicals were tested in the presence and absence of estrogen to address if they have anti-estrogenic activity in addition to their antiproliferative effect. The study was done in triplicate and a control was used with solvent only. Control received solvent only at <0.1% ethanol. Estrogen was tested at 1 nM (=0.27 ng E2/ml). Exemplary plant essential oil compounds were tested at 50 ug/ml.
as §1, with “(0.27” for “(=0.27”, “Plant” for “Exemplary plant”

[2] = test chemical 1 μg/ml + E2 10 nM
[3] = test chemical 5 μg/ml + E2 10 nM
[4] = test chemical 10 μg/ml + E2 10 nM
[5] = test chemical 20 μg/ml + E2 10 nM
[6] = Table 1, test chemical 50 ug/ml + estrogen 1 nM

`C=CCc1ccc(O)c(OC)c1` [Eugenol] was tested, and the “protection against the E2-induced abnormal growth in cancer breast cells” value (MCF-7 cells; 1 ug/ml, summary of Table 3) was 35%, the “% anti-E2” value (MCF-7 cells; [2]) was 25.00% and the Cell count average (MCF-7 cells; [2]) was 24.0 × (10^4)/ml. For the same compound, the “Cell count well #1” value (MCF-7 cells; [2]) was 19 × (10^4)/ml, the “Cell count well #2” value (MCF-7 cells; [2]) was 29 × (10^4)/ml and the “% anti-E2” value (MCF-7 cells; [3]) was 41.70%. The Cell count average (MCF-7 cells; [3]) was 19.0 × (10^4)/ml, the “Cell count well #1” value (MCF-7 cells; [3]) was 19 × (10^4)/ml and the “Cell count well #2” value (MCF-7 cells; [3]) was 19 × (10^4)/ml. For the same compound, the “% anti-E2” value (MCF-7 cells; [4]) was 50.00%, the Cell count average (MCF-7 cells; [4]) was 16.0 × (10^4)/ml and the “Cell count well #1” value (MCF-7 cells; [4]) was 18 × (10^4)/ml. For the same compound, the “Cell count well #2” value (MCF-7 cells; [4]) was 14 × (10^4)/ml, the “% anti-E2” value (MCF-7 cells; [5]) was 60.40% and the Cell count average (MCF-7 cells; [5]) was 13.0 × (10^4)/ml. For the same compound, the “Cell count well #1” value (MCF-7 cells; [5]) was 10 × (10^4)/ml, the “Cell count well #2” value (MCF-7 cells; [5]) was 16 × (10^4)/ml and the activity at 50 µg/mL ([1]; test chemical 50 ug/ml + estrogen 1 nM) was 70%. The activity at 50 µg/mL ([1]; test chemical 50 ug/ml alone) was 52%, the “3H-thymidine incorporation % of estrogen value” [1, 6] was 44% and the “3H-thymidine incorporation dpm/ug protein” value [1, 6] was 289.1 dpm/ug protein. For the same compound, the “3H-thymidine incorporation dpm/ug protein” value ([1]; Table 1, test chemical 50 ug/ml alone) was 215.6 dpm/ug protein.
